These results are taken from patent publication US10501516B2, “Peptide compound” (TAKEDA PHARMACEUTICAL COMPANY LIMITED, priority 2016, dated 2019).

In series [1] the test system is Male KKA^y mice. The series is described as follows: Repeated administration in KKA^y mice. It is filed as in vivo, mouse. The conditions noted are these: for ALT / AST / TC / TG: plasma, mean ± SD. How it is done: Male KKA^y mice (10 weeks old) were divided into the groups based on the data of body weight, food intake, glycated hemoglobin (GHb), and plasma parameters. P41 was subcutaneously administered once a day for 4 weeks. Compounds were dissolved in 10% DMSO/saline. Body weight and food intake were monitored during the study. After the study, blood was collected and GHb and plasma parameters were measured. The animals were sacrificed, and the liver and the adipose tissues were dissected and weighed. Lipid was extracted from a piece of liver tissue and liver triglyceride (TG) content was measured.
Plasma glucose and TG were measured by Autoanalyzer 7180 (Hitachi High-Technologies Corporation, Japan). Blood GHb was measured with the automated GHb analyzers (HLC-723G8, Tosoh, Tokyo, Japan). Plasma insulin was measured with ELISA Assay kit (Shibayagi Co. Ltd., Japan). Liver TG content was measured as follows: a piece of tissue was homogenized in saline and lipid was extracted by the addition of hexane:isopropanol (3:2) solution. The lipid phase was collected, dried and then dissolved in isopropanol. The concentration of TG was measured by Triglyceride E-test (Wako Pure Chemical Industries) and TG content per g liver was calculated.

Series [2] deals with cynomolgus monkeys. The series is described as follows: Food intake and emesis study in cynomolgus monkeys. It is filed as in vivo, cynomolgus monkey. How it is done:
One male and one female cynomolgus monkeys (age: 4 years old, body weight: 3.9 kg in male, 2.7 kg in female) were used. The monkeys were housed in individual cages with a 12 hr:12 hr light-dark schedule at 22-27° C., and given 100 g of pellet diet (Oriental Yeast Co. Ltd) once daily. The diet was supplied after completion of the clinical observation at 8 hour post dose on the days of dosing. On other days during the experimental period, the diet was supplied each day after the completion of examinations and the remaining diet was withdrawn on the following morning. P41 was dissolved in 0.5 w/v % mannitol solution. The compound at 0.05 mg/kg was subcutaneously administered at day 1 and then at 0.15 mg/kg at day 4. Body weight was measured once during the pre-dosing period and on day 1, 4, 8, 11 and 15. Food intake was measured every day during the experimental period.

The mark [3] stands for this setting: 10 nmol/kg s.c. once a day for 4 weeks.
[4] abbreviates: 30 nmol/kg s.c. once a day for 4 weeks.
Setting [5] is: 100 nmol/kg s.c. once a day for 4 weeks.
Where [6] appears, read: 10, 30 and 100 nmol/kg s.c. once a day for 4 weeks.

Square brackets hold non-standard residues; d marks the D form. Side chains are listed from the residue outwards. Peptide text beside a SMILES is read from it. * marks the point of attachment. NMeY = CN[C@@H](Cc1ccc(O)cc1)C(=O)O; Palmitoyl = CCCCCCCCCCCCCCCC(=O)*; αMeF = C[C@](N)(Cc1ccccc1)C(=O)O; Iva = CC[C@](C)(N)C(=O)O; Aib = CC(C)(N)C(=O)O Where only a bound is given, the exact number is not on record here.

In the case of `CCCCCCCCCCCCCCCC(=O)NCC(=O)NCC(=O)NCC(=O)NCC(=O)NCCCC[C@H](NC(=O)[C@H](CC(=O)O)NC(=O)[C@H](CO)NC(=O)[C@@H](NC(=O)[C@](C)(Cc1ccccc1)NC(=O)[C@@H](NC(=O)CNC(=O)[C@H](CCC(=O)O)NC(=O)C(C)(C)NC(=O)[C@H](Cc1ccc(O)cc1)NC)[C@@H](C)O)[C@@H](C)O)C(=O)N[C@@H](CO)C(=O)N[C@H](C(=O)NC(C)(C)C(=O)N[C@@H](CC(C)C)C(=O)N[C@@H](CCC(=O)O)C(=O)N[C@@H](CCCCN)C(=O)N[C@@H](CCC(N)=O)C(=O)N[C@@H](CCCNC(=N)N)C(=O)N[C@@H](CCC(N)=O)C(=O)N[C@@](C)(CC)C(=O)N[C@@H](CCC(=O)O)C(=O)N[C@@H](Cc1ccccc1)C(=O)N[C@H](C(=O)N[C@@H](CCCNC(=N)N)C(=O)N[C@@H](Cc1c[nH]cn1)C(=O)N[C@@H](CC(C)C)C(=O)N[C@@H](CC(C)C)C(=O)N[C@@H](CC(N)=O)C(=O)N[C@@H](CCCCN)C(=O)NC(C)(C)C(=O)N[C@H](C(=O)N[C@@H](CCCNC(=N)N)C(=O)N[C@@H](CCC(N)=O)C(=O)N[C@@H](CCCNC(=N)N)C(=O)N[C@@H](Cc1ccc(O)cc1)C(N)=O)[C@@H](C)O)C(C)C)[C@@H](C)CC` [Example 41] (H-[NMeY][Aib]EGT[αMeF]TSDK([Gly-Gly-Gly-Gly-Palmitoyl])SI[Aib]LEKQRQ[Iva]EFVRHLLNK[Aib]TRQRY-NH2), in series [1] (setting [3]), the “decrease in body weight compared with vehicle group” value (“decrease in body weight” below) came to 4.2%, the ALT worked out at 31.3 ± 9.7 U/L, the AST is reported as 53.4 ± 11.9 U/L and the TC stood at 139.3 ± 19.0 mg/dL. In series [1] (setting [3]), this compound returned a TG of 357.1 ± 76.9 mg/dL. For the same compound, in series [1] (setting [4]), the “decrease in body weight” value came to 9.8%, the ALT amounted to 24.9 ± 2.1 U/L, the AST worked out at 48.9 ± 8.6 U/L and the TC worked out at 155.9 ± 20.1 mg/dL. For the same compound, the TG in series [1] (setting [4]) is on record as 210.1 ± 53.3 mg/dL. In series [1] (setting [5]), the “decrease in body weight” value was found to be 30.1%, the ALT was found to be 21.7 ± 7.6 U/L, the AST amounted to 52.6 ± 7.3 U/L and the TC is 131.4 ± 14.0 mg/dL. For the same compound, the TG in series [1] (setting [5]) was determined as 138.1 ± 54.4 mg/dL. In series [1] (setting [6]), the “GHb, PG and plasma insulin levels” value was “dose-dependent and significant decrease”; the liver tissue weight entry is “Comparable reduction”. In addition, the food consumption result in series [2] (0.05 and 0.15 mg/kg (ca. 10 and 30 nmol/kg) s.c., one male and one female) is given as “almost completely abolished food consumption”. Besides, the “duration of inhibitory effect of food consumption” value in series [2] (0.05 and 0.15 mg/kg s.c.) is reported as no less than 2 days. Moreover, in series [2] (0.05 and 0.15 mg/kg s.c., throughout the experimental period), the vomiting result is reported as “did not induce vomiting”.
